Test results from publication PMC7367873, “Dissecting the sequence determinants for dephosphorylation by the catalytic subunits of phosphatases PP1 and PP2A” (Nature Communications, 2020).
Each block holds one compound with its values, some of them ahead of it.

Assays:
[1] = test system: GAB2-pS210; test: In vitro dephosphorylation of GAB2-pS210 (Western blot); type: biochemical, human; conditions: GAB2-pS210 relative to GAB2, Calyculin A 20 nM 12 min in HeLa Kyoto cells, recombinant PP1c 1 µM, 1 h at 30 °C in lysate
Procedure: pEGFP(C1)-14-3-3β or pCMV-GAB2-3FLAG was transfected into HeLa Kyoto cells as described in the respective section for 24 h. Cells were incubated with or w/o 20 nM Calyculin A (# 9902 S, Cell Signaling Technology) in complete growth media for 12 min. Cells were washed twice on ice with cold PBS and after addition of 500 µL lysis buffer (100 mM NaCl, 10 mM Tris, 0.1% IGEPAL, 1 mM EDTA, 1 mM EGTA, 20 nM Calyculin A, 1x cOmplete Mini protease inhibitor cocktail (Sigma), 2 mM DTT, 2 mM MnCl2) cells were scraped from plates, lysed by 10 pushes through an injection needle and the insoluble fraction was pelleted by centrifugation (10 min, 10^4 rcf, 4 °C). […] Beads were then washed three times with lysis buffer and samples were eluted in 1x SDS sample buffer by heating to 95 °C for 10 min and further analyzed by SDS PAGE for 14-3-3/GAB2 association and phosphorylation status of GAB2-pS210.
For SDS-PAGE, samples were loaded on NuPAGE™ 4-12% Bis-Tris protein gels (Invitrogen) and gel electrophoresis was performed at 180 V constant in 1x MOPS buffer. […] All blots were quantified using raw images and ImageLab software (v6.0.1, BioRad): Files were imported and analyzed without further modifications. […] The quantification was exported from the analysis table and measurements of background adjusted band volumes where used for further normalization steps and graphical depiction. […]

[2] = test system: GAB2/GFP-14-3-3β interaction; test: GAB2/14-3-3 binding assay (GFP-14-3-3β pull-down, Western blot); design: species or system human
Procedure: pEGFP(C1)-14-3-3β or pCMV-GAB2-3FLAG was transfected into HeLa Kyoto cells as described in the respective section for 24 h. Cells were incubated with or w/o 20 nM Calyculin A (# 9902 S, Cell Signaling Technology) in complete growth media for 12 min. Cells were washed twice on ice with cold PBS and after addition of 500 µL lysis buffer (100 mM NaCl, 10 mM Tris, 0.1% IGEPAL, 1 mM EDTA, 1 mM EGTA, 20 nM Calyculin A, 1x cOmplete Mini protease inhibitor cocktail (Sigma), 2 mM DTT, 2 mM MnCl2) cells were scraped from plates, lysed by 10 pushes through an injection needle and the insoluble fraction was pelleted by centrifugation (10 min, 10^4 rcf, 4 °C). Supernatants were then subjected to incubation with 1 µM recombinant PP1c (if not indicated otherwise) or buffer for 1 h at 30 °C. […] Next, we subjected samples to immunoprecipitation/pull-down using 25 µL of α-FLAG M2 magnetic bead slurry (Sigma-Aldrich) or an equal volume of bead-coupled α-GFP nanobodies (EMBL PEPcore Core Facility) for 2 h at 4 °C. Beads were then washed three times with lysis buffer and samples were eluted in 1x SDS sample buffer by heating to 95 °C for 10 min and further analyzed by SDS PAGE for 14-3-3/GAB2 association and phosphorylation status of GAB2-pS210.
For SDS-PAGE, samples were loaded on NuPAGE™ 4-12% Bis-Tris protein gels (Invitrogen) and gel electrophoresis was performed at 180 V constant in 1x MOPS buffer. Samples were transferred onto CN blotting membranes (0.45 µm, neoLab) by wet blotting. Membranes were stained using Ponceau, followed by blocking with Tris-buffered saline with 0.1% Tween (TBS-T) containing 5% (w/v) non-fat milk for 45 min at room temperature. After three washes (5 min), membranes were then incubated with the following antibodies in TBS-T with 5% BSA overnight at 4 °C: α-GFP (1:2000, Abcam, ab6556), α-GAB2 (1:1000, CST, #3239), α-GAB2-pS210 (1:250, Symansis, customized purification), α-FLAG (1:1000, M2, Sigma-Aldrich, F3165), α-pan14-3-3 (1:500, SCBT, sc-629), α-PP1 (1:1000, SCBT, sc-7482), α-PP2A (1:1000, SCBT, sc-130237) or α-6His (1:2000, Abcam, ab9108). Afterwards blots were washed three times in TBS-T and incubated with goat anti-mouse IgG-peroxidase conjugate (1:2500, Sigma, A0168), donkey anti-rabbit IgG-horseradish peroxidase (HRP) conjugate (1:2500, GE Healthcare, GENA934), or rabbit anti-sheep IgG (H + L) HRP conjugate (1:2500, Thermo Fisher Scientific, 61-8620) for 2 h at room temperature. […] All blots were quantified using raw images and ImageLab software (v6.0.1, BioRad): Files were imported and analyzed without further modifications. […] The quantification was exported from the analysis table and measurements of background adjusted band volumes where used for further normalization steps and graphical depiction. […]

[3] = test system: PP1/PP2A; conditions: 20 nM Calyculin A in cell culture medium and lysis buffer; ref PMID 30338897; cited from earlier work
Description: page 8: an adjusted p-value <0.01 are highlighted in bold in the heat-map comparing PP1c/PP2Ac. […] Furthermore, this new comparison also brought to our attention an apparently very strong differential effect of Pro in +1. We have therefore synthesized the Cterm peptide AAAApTPFGAK. Like in the case of ba ...

[4] = target: T1, PP1c (Homo sapiens, UniProt P62136); test: Kinetics of phosphopeptide dephosphorylation by PP1c (EnzChek Phosphate Assay); type: biochemical; conditions: non-competitive phosphatase activity assay, Supplementary Fig. 3c
T1 construct: His tag with TEV site (N, cleaved yes); intein (pTXB1) (C, cleaved yes); made in house; host or cells: E. coli BL21Star(DE3)pRARE
Procedure: (§1) Prior to library dephosphorylation with subsequent MS analysis, as well as for the confirmation of MS results by directed peptide synthesis and dephosphorylation kinetics, the release of phosphate over time from peptides or libraries had to be monitored: The libraries and peptides were dissolved in 25% DMSO and 75% H2O at 10 mM. The EnzChek Phosphate Assay Kit (Thermo Fisher Scientific) was used to assess the kinetics/dynamics of the library or peptide dephosphorylation by PP1c and PP2Ac. The assay was carried out in a volume of 100 µL reaction buffer (20 mM Tris, 100 mM NaCl, 1 mM DTT, 0.15 units PNP, 0.2 mM MESG,) containing 100 µM phosphopeptide library or indicated concentrations of peptide and 25 nM phosphatase. Because of our goal to identify differences in selectivity, we used equimolar concentrations of the phosphatases. […] The change of absorbance was detected at 360 nm at 25 °C on a Synergy H4 microplate reader using the software Gen5. […] For analysis of enzyme kinetics, raw data were further analyzed in GraphPad Prism v6.
(§2) The datasets of Nterm or Cterm libraries treated with recombinant PP1c and PP2Ac were used. […] Data analysis was carried out in GraphPad Prism v6 and the kcat/Km was calculated by comparison to a phosphate standard. […]

[5] = target: T2, PP2Ac (Homo sapiens, UniProt P67775); test: Kinetics of phosphopeptide dephosphorylation by PP2Ac (EnzChek Phosphate Assay); type: biochemical; conditions: non-competitive phosphatase activity assay, Supplementary Fig. 3c
T2 construct: purchased Cayman Chemical 10011237
Procedure: as §1, §2

[6] = test system: mKate2-GAB2 localization in HeLa Kyoto cells; test: GAB2 recruitment to the plasma membrane, live-cell confocal microscopy, HeLa Kyoto; type: cell-based, human; conditions: starved, 5 min, EGF 100 ng/mL, PDP-Nal/PDPm-Nal 50 µM, n = 44/56/31 cells for EGF/PDP-Nal/PDPm-Nal
Procedure: (§3) The cells were seeded on 8-well ibiTreat µslides (Ibidi) and transfected as described in the respective section. In order to serum-starve cells for 45 min to 1 h before imaging, cells were washed twice with warm PBS and cultivated in 200 µL DMEM without FBS and phenol red (Gibco) supplemented with 1 g/L L-glutamine and 1% penicillin/streptomycin. For imaging, cells were then mounted in an Okolab stage incubator system (37 °C, 5% CO2 using an H101-CRYO-BL temperature controller, CO2-O2 UNIT-BL gas controller, H101-HM active humidity controller and incubation chamber H101-NIKON-TI-S-ER). All images were acquired with the A1R Confocal Scanning System equipped on a Nikon Ti-E inverted microscope installed with an Apo TIRF 100x DIC N2 1.49 NA Oil objective. […] Images were acquired using the GaAsP detectors controlled with the NIS Elements 4.50 operating software. Time-lapse-experiments consisted of an image acquisition interval of 15 s for at least 12 min for each sample condition separately using an exposure time of 0.5 frames per second. Cells were treated after frame 3 by adding 100 µL of starvation media (see above) with 300 ng/mL EGF (Gibco) or 150 µM PDP(m)-Nal resulting in final concentrations of 100 ng/mL for EGF and 50 µM for PDPs.
For image analysis, microscopy files were loaded into Fiji v2.0.0-rc-34/1.50a. […]

[7] = test system: mKate2-GAB2 localization in Caco-2 BBe1 cells; test: GAB2 recruitment to the plasma membrane, live-cell confocal microscopy, Caco-2 BBe1; type: cell-based, human; conditions: Caco-2 BBe1, starved, 12 min; EGF 100 ng/mL; PDP-Nal/PDPm-Nal 50 µM; n = 19/13/13 cells for EGF/PDP-Nal/PDPm-Nal
Procedure: as §3, with “Cells were treated after frame 3 by adding 100 µL of starvation media (see above) with 300 ng/mL EGF (Gibco) or 150 µM PDP(m)-Nal resulting in final concentrations of 100 ng/mL for EGF and 50 µM for PDPs.” left out
(§4) Supplementary Figure 8. […] For Caco-2 BBe1 the following number (n) of cells were analyzed: 19 (EGF), 13 (PDP-Nal), 13 (PDPm-Nal); for SW-480: 20 (EGF), 19 (PDP-Nal), […]

[8] = test system: mKate2-GAB2 localization in SW-480 cells; test: GAB2 recruitment to the plasma membrane, live-cell confocal microscopy, SW-480; type: cell-based, human; conditions: SW-480, starved, 12 min; EGF 100 ng/mL; PDP-Nal/PDPm-Nal 50 µM; n = 20/19/26 cells for EGF/PDP-Nal/PDPm-Nal
Procedure: as §3, with “Cells were treated after frame 3 by adding 100 µL of starvation media (see above) with 300 ng/mL EGF (Gibco) or 150 µM PDP(m)-Nal resulting in final concentrations of 100 ng/mL for EGF and 50 µM for PDPs.” left out
as §4

T1 sequence (P62136 whole entry): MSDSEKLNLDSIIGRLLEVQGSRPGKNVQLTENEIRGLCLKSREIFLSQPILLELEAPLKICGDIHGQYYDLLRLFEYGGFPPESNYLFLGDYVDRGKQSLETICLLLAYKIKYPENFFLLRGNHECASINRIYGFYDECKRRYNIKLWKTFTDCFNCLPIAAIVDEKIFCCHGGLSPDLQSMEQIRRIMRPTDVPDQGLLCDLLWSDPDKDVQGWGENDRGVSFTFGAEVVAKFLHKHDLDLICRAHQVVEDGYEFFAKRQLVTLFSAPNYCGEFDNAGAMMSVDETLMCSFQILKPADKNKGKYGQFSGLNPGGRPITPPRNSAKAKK
T2 sequence (P67775 1-308 limits assumed): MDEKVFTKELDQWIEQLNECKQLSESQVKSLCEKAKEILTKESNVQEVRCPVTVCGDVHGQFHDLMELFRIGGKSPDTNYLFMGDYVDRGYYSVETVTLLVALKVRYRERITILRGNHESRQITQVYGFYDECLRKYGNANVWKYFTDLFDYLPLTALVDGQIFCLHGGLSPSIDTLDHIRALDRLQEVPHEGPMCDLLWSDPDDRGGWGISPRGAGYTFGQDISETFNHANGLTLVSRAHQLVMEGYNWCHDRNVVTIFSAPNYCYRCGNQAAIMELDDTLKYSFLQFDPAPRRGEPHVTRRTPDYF

Compound: COC[C@@H]([C@H](O)[C@H](O)C(=O)NCC[C@H](C)c1nc(/C=C/C[C@@H]2O[C@]3(C[C@@H](O)[C@@H]2C)O[C@H]([C@H](C[C@H](O)[C@H](C)[C@H](O)[C@H](C)/C=C(C)/C(C)=C/C=C/C(C)=C\C#N)OC)[C@H](OP(=O)(O)O)C3(C)C)co1)N(C)C [Calyculin A, reference compound]
p-level of GAB2 pS210 [1]: increased | interaction of GAB2 with overexpressed GFP-14-3-3β ([2]; Calyculin A 20 nM in cells, recombinant PP1c in lysate 1 h at 30 °C, PP1c-concentration-dependent, three independent experiments): strongly increased | interaction of GAB2 with GFP-14-3-3β, PP1c pre-inhibited ([2]; recombinant PP1c mixed with equimolar Calyculin A for 5–10 min before addition to lysate): abolishes the effect | stabilization of phosphorylation of PP1/PP2A substrate sites (such as Ser259 of CRAF/Raf-1) [3]: stabilize

dephosphorylation by PP1c of peptide with Pro in +1 (in words) [4]: good substrate | dephosphorylation by PP2Ac of peptide with Pro in +1 (in words) [5]: unable to dephosphorylate
Compound: AAAApTPFGAK [Cterm peptide with Pro in +1]

Compound: EGF: epidermal growth factor (Gibco)
GAB2 recruitment to the plasma membrane [6]: GAB2 recruitment to the plasma membrane | GAB2 recruitment to the plasma membrane [7]: GAB2 recruitment to the plasma membrane | GAB2 recruitment to the plasma membrane [8]: GAB2 recruitment to the plasma membrane
